The text below walks through data of patent US12077537B2 (Gilead Sciences, Inc., priority 2020, dated 2024).

The test deals with HIV-IIIb. The test can be described thus: Antiviral assay in MT4 cells. The note with it: Human immunodeficiency virus 1, MT4, 120 h; MT-4 cells mixed with HIV-IIIb at m.o.i. 0.003; 5 days at 37° C.; CellTiter-Glo luminescence; 50% decrease in signal, a measure of HIV-1 replication. The test is classed as cell-based. The method in brief:
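MT-4 cells were infected with HIV-IIIb at m.o.i. 0.003 for 1 hour, then added to 3-fold serially diluted compound (10 concentrations, quadruplicate) in medium with 10% FBS. After 5 days at 37° C, cell viability was read by CellTiter-Glo chemiluminescence.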
Background: In ATP-based viability assays light output follows the ATP content of the culture.

Broadly, the EC50 is the concentration that produces a half-maximal response. Lower therefore signals higher potency in that assay. In turn, `Cn1nc(NS(C)(=O)=O)c2cccc(-c3cc4sc(N5CCC(C)(O)C5)nc4nc3C(Cc3cc(F)cc(F)c3)NC(=O)Cn3nc(C(F)(F)F)c4c3C(F)(F)[C@@H]3C[C@H]43)c21` (stereo partly drawn) [Example 125, 2-((3bS,4aR)-5,5-difluoro-3-(trifluoromethyl)-3b,4,4a,5-tetrahydro-1H-cyclopropa[3,4]cyclopenta[1,2-c]pyrazol-1-yl)-N-(2-(3,5-difluorophenyl)-1-(2-(3-hydroxy-3-methylpyrrolidin-1-yl)-6-(1-methyl-3-(methylsulfonamido)-1H-indazol-7-yl)thiazolo[4,5-b]pyridin-5-yl)ethyl)acetamide] returned an EC50 of 17.4 nM.

`Cn1nc(NS(C)(=O)=O)c2cccc(-c3cc4sc(N5CCC(C)(N)CC5)nc4nc3C(Cc3cc(F)cc(F)c3)NC(=O)Cn3nc(C(F)(F)F)c4c3C(F)(F)[C@@H]3C[C@H]43)c21` (stereo partly drawn) [Example 126, N-(1-(2-(4-amino-4-methylpiperidin-1-yl)-6-(1-methyl-3-(methylsulfonamido)-1H-indazol-7-yl)thiazolo[4,5-b]pyridin-5-yl)-2-(3,5-difluorophenyl)ethyl)-2-((3bS,4aR)-5,5-difluoro-3-(trifluoromethyl)-3b,4,4a,5-tetrahydro-TH-cyclopropa[3,4]cyclopenta[1,2-c]pyrazol-1-yl)acetamide] showed a 50% effective concentration (EC50) of 33.8 nM.

`Cn1nc(NS(C)(=O)=O)c2cccc(-c3cc4sc(N5CCC(C)(C(N)=O)CC5)nc4nc3C(Cc3cc(F)cc(F)c3)NC(=O)Cn3nc(C(F)(F)F)c4c3C(F)(F)[C@@H]3C[C@H]43)c21` (stereo partly drawn) [Example 127, 1-(5-(1-(2-((3bS,4aR)-5,5-difluoro-3-(trifluoromethyl)-3b,4,4a,5-tetrahydro-TH-cyclopropa[3,4]cyclopenta[1,2-c]pyrazol-1-yl)acetamido)-2-(3,5-difluorophenyl)ethyl)-6-(1-methyl-3-(methylsulfonamido)-1H-indazol-7-yl)thiazolo[4,5-b]pyridin-2-yl)-4-methylpiperidine-4-carboxamide] yielded a 50% effective concentration (EC50) of 31.9 nM.

In the case of `Cn1nc(NS(C)(=O)=O)c2cccc(-c3cc4sc(NC5CNC(=O)C5)nc4nc3C(Cc3cc(F)cc(F)c3)NC(=O)Cn3nc(C(F)(F)F)c4c3C(F)(F)[C@@H]3C[C@H]43)c21` (stereo partly drawn) [Example 128, 2-((3bS,4aR)-5,5-difluoro-3-(trifluoromethyl)-3b,4,4a,5-tetrahydro-1H-cyclopropa[3,4]cyclopenta[1,2-c]pyrazol-1-yl)-N-(2-(3,5-difluorophenyl)-1-(6-(1-methyl-3-(methylsulfonamido)-1H-indazol-7-yl)-2-((5-oxopyrrolidin-3-yl)amino)thiazolo[4,5-b]pyridin-5-yl)ethyl)acetamide], a half-maximal effect (EC50) was put at 342 nM.
